Our source for the IC50 values is patent publication US20260097047A1, “Small molecule inhibitors of the ribosome biogenesis factor NVL2” (Board of Regents, The University of Texas System, priority 2023, published 2026).

The subject of the first assay is HCT116 cells. The assay can be described thus: Cell viability assay (CellTiter-Glo, 72 hours) in HCT116 human colorectal cancer cells. It counts as cell-based. The conditions noted are these: Homo sapiens, HCT-116; Table 5; HCT116, 72 hours; read-out: Activity. On the procedure:
Cell culture: The HCT116 cell line was obtained from ATCC and cultured in Dulbecco's Modified Eagle's Medium (DMEM)-high glucose (Sigma Aldrich #D5796) supplemented with 10% fetal bovine serum (FBS) (Sigma-Aldrich #F2442) and 2 mM L-Glutamine (Sigma Aldrich #G7513). Cells were cultured at 37° C. in 5% CO2. The identity of all cell lines was confirmed by short tandem repeat (STR) analysis and confirmed to be mycoplasma-free using a PCR based assay (Genatlantis).
Cell viability assay: In 96-well assay plates (Corning #2903), 2,000 cells were plated per well in 100 μL of medium and allowed to adhere overnight. The next day, compounds suspended in DMSO were dispensed to the assayed wells using a D300e Digital Dispenser (Tecan). All wells were normalized to 0.5% DMSO. 72 hours after incubation at 37° C. in 5% CO2, cell viability was assayed using an ATP-based luminescent viability assay, CellTiter-Glo (Promega #G8462). Substrate was mixed 1:1 with phosphate-buffered saline (PBS) supplemented with 1% Triton X-100, and 40 μL of this mixture was added to the assay wells. Plates were shaken on a microplate shaker for 10 minutes at room temperature. Luminescence (CellTiter-Glo) was recorded using a Synergy 2 microplate reader (BioTek). In Prism 9 software (GraphPad), ten-point dose response curves were plotted with baseline-correction to the vehicle control well, and IC50 values were calculated by curve fitting using asymmetric (five parameter), least squares fit.
For the compound `CC#CCN1C(=O)c2ccccc2Sc2cc(Nc3cncnc3)ccc21` [10-(But-2-yn-1-yl)-7-(pyrimidin-5-ylamino)dibenzo[b,f][1,4]thiazepin-11 (10H)-one], the IC50 was < 500 nM. As to `CC#CCN1C(=O)c2ccccc2Sc2cc(Nc3ccc(C)nn3)ccc21` [10-(But-2-yn-1-yl)-7-((6-methylpyridazin-3-yl)amino)dibenzo[b,f][1,4]thiazepin-11 (10H)-one], the IC50 is < 500 nM. Same read-out and setting: in the case of `CC#CCN1C(=O)c2ccccc2Sc2cc(Nc3cccnc3)ccc21` [10-(But-2-yn-1-yl)-7-(pyridin-3-ylamino)dibenzo[b,f][1,4]thiazepin-11 (10H)-one] it was < 500 nM. Consider `CC#CCN1C(=O)c2ccc(F)cc2Sc2cc(Nc3ncccc3F)ccc21` [10-(But-2-yn-1-yl)-3-fluoro-7-((3-fluoropyridin-2-yl)amino)dibenzo[b,f][1,4]thiazepin-11 (10H)-one], for which the IC50 is < 500 nM. As for `CC#CCN1C(=O)c2ccccc2Sc2cc(Nc3cccnc3C#N)ccc21` [3-((10-(But-2-yn-1-yl)-11-oxo-10,11-dihydrodibenzo[b,f][1,4]thiazepin-7-yl)amino) picolinonitrile], the IC50 is < 500 nM.

The assay is the same for the next values; noted with them: Homo sapiens, HCT-116; Table 6; HCT116, 72 hours; read-out: Activity.
For `CC#CCN1C(=O)c2ccccc2Sc2cc(NC3COCC3C)cnc21` (centres unmarked) [11-(But-2-yn-1-yl)-3-((4-methyltetrahydrofuran-3-yl)amino)benzo[f]pyrido[3,2-b][1,4]thiazepin-10(11H)-one], the IC50 is < 500 nM. Turning to `CC#CCN1C(=O)c2ccccc2Sc2cc(NCC3COC3)ccc21` [10-(But-2-yn-1-yl)-7-((oxetan-3-ylmethyl)amino)dibenzo[b,f][1,4]thiazepin-11 (10H)-one], the IC50 lay within 1000 to 5000 nM.

The assay is the same for the next values; noted with them: Table 1; HCT116, 72 hours; read-out: Activity.
As to `CC#CCN1C(=O)c2ccccc2Sc2cc(NC(=O)N3CCCCC3)cnc21` [Table 1: —CH2CCMe; piperidin-1-yl; CH; N], the IC50 is < 500 nM.

The same assay, now with this note: Table 3; HCT116, 72 hours; read-out: Activity.
For the compound `CC#CCN1C(=O)c2ccccc2Sc2cc(NC(=O)Nc3ccc4oc(=O)n(C)c4c3)ccc21`, the IC50 was < 500 nM. On to `CC#CCN1C(=O)c2ccccc2Sc2cc(NC(=O)NC3COC3)ccc21` [Table 3: —CH2CCMe; oxetan-3-yl; CH/CH], for which the IC50 is < 500 nM.

The assay is the same for the next values; noted with them: Table 4; HCT116, 72 hours; read-out: Activity.
`CC#CCN1C(=O)c2ccccc2Sc2cc(NC(=S)Nc3ccc4oc(=O)n(C)c4c3)ccc21`: the IC50 was < 500 nM. Take `CC#CCN1C(=O)c2ccccc2Sc2cc(NC(=S)NC3CC(COC)C3)ccc21` (centres unmarked) [Table 4: —CH2CCMe; 3-MeOCH2-cBu; CH]: the IC50 was < 500 nM. For `CC#CCN1C(=O)c2ccccc2Sc2cc(NC(=S)Nc3ccc4scnc4c3)ccc21`, the IC50 is < 500 nM. With `CC#CCN1C(=O)c2ccccc2Sc2cc(NC(=S)N[C@H]3C[C@H](O)C3)cnc21` [Table 4: —CH2CCMe; trans-3-OH-cBu; N], the IC50 was < 500 nM. `CC#CCN1C(=O)c2ccccc2Sc2cc(NC(=S)Nc3ccc4oc(=O)n(C)c4c3)cnc21`: the IC50 is < 500 nM. Regarding `CC#CCN1C(=O)c2ccccc2Sc2cc(NC(=S)Nc3cccc(OCF)c3)cnc21` [Table 4: —CH2CCMe; 3-FH2COPh; N], the IC50 is < 500 nM.

The assay is the same for the next values; noted with them: Table 5; HCT116, 72 hours; read-out: Activity.
Regarding `C#CCN1C(=O)c2ccccc2Sc2cc(Nc3ncc(C)cc3C)cnc21`, the IC50 is < 500 nM.

Turning to `Cc1cnc(C)c(Nc2ccc3c(c2)Sc2ccccc2C(=O)N3CC#CCl)n1`, the IC50 was < 500 nM. As to `CC#CCN1C(=O)c2ccccc2Sc2cc(Nc3nccc(C#N)c3C)cnc21`, the IC50 was < 500 nM. For `CC#CCN1C(=O)c2ccccc2Sc2cc(Nc3cccnn3)cnc21`, the IC50 was < 500 nM. On the same count and under the same terms, in the case of `CC#CCN1C(=O)c2ccccc2Sc2cc(Nc3ncccc3C#N)cnc21` it was < 500 nM; in that of `CC=CCN1C(=O)c2ccccc2Sc2cc(Nc3ncccc3F)cnc21`, < 500 nM.

Staying with this assay, now noted: Table 6; HCT116, 72 hours; read-out: Activity.
For `C#CCN1C(=O)c2ccccc2Sc2cc(NC3CC(O)C3)cnc21` (centres unmarked) [Table 6: —CH2CCH; 3-HOcBu; CH/N; S], the IC50 is < 500 nM.

With `CC#CCN1C(=O)c2ccccc2Sc2cc(NC3CC4(CC(O)C4)C3)cnc21` (centres unmarked), the IC50 was < 500 nM. Consider `COC1CC(Nc2cnc3c(c2)Sc2ccccc2C(=O)N3CC#CCl)C1` (centres unmarked) [Table 6: —CH2CCCl; 3-MeOcBu; CH/N; S], for which the IC50 was < 500 nM. As to `CC#CCN1C(=O)c2ccccc2Cc2cc(NC3CC(COC)C3)ccc21` (centres unmarked), the IC50 was < 500 nM.

Staying with this assay, now noted: Table 7; cell viability assay, CellTiter-Glo, 72 hours; scaffold drawing 42 with R^2, R^3, X/Y, Z; read-out: Activity.
As to `COCCN1C(=O)c2ccccc2Sc2cc(NC(=O)c3ccncc3)ccc21` [—(CH2)2OMe; pyrid-4-yl; CH/CH; S], the IC50 was in the range of 1000 to 5000 nM. For the compound `COCCN1C(=O)c2ccccc2Sc2cc(NC(=O)c3cccc(C(F)(F)F)c3)ccc21` [—(CH2)2OMe; 3-CF3Ph; CH/CH; S], the IC50 is 1000 to 5000 nM. Consider `COCCN1C(=O)c2ccccc2Sc2cc(NC(=O)c3ccc(NC=O)c(Cl)c3)ccc21` [—(CH2)2OMe; 3-Cl,4-HC(O)NHPh; CH/CH; S], for which the IC50 was 1000 to 5000 nM. Still for that read-out and setting: in the case of `COCCN1C(=O)c2ccccc2Sc2cc(NC(=O)c3ccc(OC(F)(F)F)c(F)c3)ccc21` [—(CH2)2OMe; 3-F,4-F3COPh; CH/CH; S] it was 1000 to 5000 nM. On the same count and under the same terms, in the case of `C#CCOCCN1C(=O)c2ccccc2Cc2cc(NC(=O)c3ccc(OC)cc3)ccc21` [—(CH2)2OCH2CCH; 4-MeOPh; CH/CH; CH2] it was < 500 nM; in that of `COCCN1C(=O)c2ccccc2Sc2cc(NC(=O)c3cocn3)ccc21` [—(CH2)2OMe; oxazol-4-yl; CH/CH; S], 1000 to 5000 nM; in that of `COCCN1C(=O)c2ccccc2Sc2cc(NC(=O)c3cccc(F)c3)ccc21` [—(CH2)2OMe; 3-FPh; CH/CH; S], 1000 to 5000 nM.

Still in this assay, the particulars now being: Table 8; analogs of scaffold drawing 43 defined by R^2, R^3, X/Y, W; read-out: Activity (IC50 class, cell viability assay).
With `CC#CCN1C(=O)c2ccc(C#N)cc2Sc2cc(NC(=O)C=CCOC)ccc21` [—CH2CCMe; CH—═CHCH2OMe; CCN/CH; CH], the IC50 was < 500 nM. The same measure, in the same setting: in the case of `CC#CCN1C(=O)c2ccc(Cl)cc2Sc2cc(NC(=O)[C@H]3C[C@@H]3COC)ccc21` (relative stereo) [—CH2CCMe; trans-2-MeOCH2-cPr; CCl/CH; CH] it was < 500 nM; in that of `CC#CCN1C(=O)c2ccc(Cl)cc2Sc2cc(NC(=O)C3CCCO3)ccc21` (centres unmarked), < 500 nM. Same read-out and setting: in the case of `C#CCN1C(=O)c2ccccc2Sc2cc(NC(=O)C3CC4(CC(=NO)C4)C3)cnc21` (centres unmarked) it was < 500 nM.

Take `CC#CCN1C(=O)c2ccccc2Sc2cc(NC(=O)C34CC(C)(C3)C4)ccc21`: the IC50 was < 500 nM.

For the compound `CC#CCN1C(=O)c2ccccc2Sc2cc(NC(=O)c3ccc4oc(=O)n(C)c4c3)cnc21`, the IC50 is < 500 nM. Same read-out and setting: in the case of `CC#CCN1C(=O)c2ccccc2Sc2cc(NC(=O)c3ccc4scnc4c3)ccc21` it was < 500 nM; in that of `CC#CCN1C(=O)c2ccccc2Sc2cc(NC(=O)C3CC4(CC(=NO)C4)C3)ccc21` (centres unmarked), < 500 nM. In the case of `CC#CCN1C(=O)c2ccc(Cl)cc2Sc2cc(NC(=O)C3COC3)ccc21` [—CH2CCMe; oxetan-3-yl; CCl/CH; CH], the IC50 is < 500 nM. The same measure, in the same setting: in the case of `CC#CCN1C(=O)c2ccccc2Sc2cc(NC(=O)OCCOC)ccc21` [—CH2CCMe; O(CH2)2OMe; CH/CH; CH] it was < 500 nM; in that of `CC#CCN1C(=O)c2ccc(Cl)cc2Sc2cc(NC(=O)C3CC4(COC4)C3)cnc21`, < 500 nM; in that of `CC#CCN1C(=O)c2ccc(Cl)cc2Sc2cc(NC(=O)C(C)CCOC)ccc21` (centres unmarked) [—CH2CCMe; MeO(CH2)2CHMe-; CCI/CH; CH], < 500 nM. On to `CC#CCN1C(=O)c2ccc(Cl)cc2Sc2cc(NC(=O)C3CC4(COC4)C3)ccc21`, for which the IC50 is < 500 nM. The same measure, in the same setting: in the case of `CC#CCN1C(=O)c2ccc(F)cc2Sc2cc(NC(=O)CC3COC3)ccc21` [—CH2CCMe; (oxetan-3-yl)CH2; CF/CH; CH] it was < 500 nM.

The assay is the same for the next values; noted with them: Table 9; HCT116, 72 hours; read-out: Activity.
On to `CC#CCN1C(=O)c2ccccc2C(C)c2cc(NC(=O)C3CC4(CC(=O)C4)C3)ccc21` (centres unmarked), for which the IC50 is < 500 nM. Take `CC1c2ccccc2C(=O)N(CC#CC2CC2)c2ccc(NC(=O)C3CCOC3)cc21` (centres unmarked): the IC50 is < 500 nM. On to `N#CC1c2ccccc2C(=O)N(CC#CC2CC2)c2ccc(NC(=O)[C@H]3C[C@@H]3CO)cc21` (relative stereo), for which the IC50 was < 500 nM.

In the case of `CC1c2ccccc2C(=O)N(CC#CC2CC2)c2ccc(NC(=O)[C@@H]3C[C@H]3CO)cc21` (relative stereo), the IC50 was < 500 nM.

As for `CC1c2ccccc2C(=O)N(CC#CC2CC2)c2ccc(NC(=O)C3COC3)cc21` (centres unmarked) [Table 9: —CH2CC^cPr; oxetan-3-yl; CHMe], the IC50 was < 500 nM. On to `CC#CCN1C(=O)c2ccccc2Cc2cc(NC(=O)C3CC4(CC(=NO)C4)C3)ccc21` (centres unmarked), for which the IC50 was < 500 nM. Turning to `O=C(Nc1ccc2c(c1)Cc1ccccc1C(=O)N2CC#CC1CC1)C1CC2(COC2)C1`, the IC50 is < 500 nM.

Staying with this assay, now noted: cell viability assay; Table 10 analogs of scaffold drawing 45 defined by R2, R3, X/Y, W; read-out: Activity.
Take `CO[C@H]1C[C@H](C(=O)Nc2cnc3c(c2)Sc2ccccc2C(=O)N3CC#CC2CC2)C1` [—CH2CCcPr; trans-3-MeOcBu; CH/CH; N]: the IC50 was < 500 nM. Consider `COCC1CC(C(=O)Nc2cnc3c(c2)Sc2ccccc2C(=O)N3CC#CC2CC2)C1` (centres unmarked) [—CH2CCcPr; 3-MeOCH2-cBu; CH/CH; N], for which the IC50 was < 500 nM.
